For this assay, the target named is His6-TEV-PDGFRβ (557-1016) (Homo sapiens (Human), UniProt P09619). The assay can be described thus: PDGFRβ HTRF Assay. The conditions noted are these: read-out: PDGFR HTRF IC50. The assay is classed as biochemical. A digest of the protocol:
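HTRF KinEASE-TK readout (665/620 nm ratio) of TK-biotin substrate phosphorylation by His-tagged PDGFRβ kinase domain. Enzyme and inhibitor preincubated 30 min, then ATP/substrate added for 3 h at room temperature before 60 min EDTA quench/detection.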
In general terms: TR-FRET usually uses a lanthanide donor and a delayed reading to cut background.

Chain of His6-TEV-PDGFRβ (557-1016) (P09619 557-1016): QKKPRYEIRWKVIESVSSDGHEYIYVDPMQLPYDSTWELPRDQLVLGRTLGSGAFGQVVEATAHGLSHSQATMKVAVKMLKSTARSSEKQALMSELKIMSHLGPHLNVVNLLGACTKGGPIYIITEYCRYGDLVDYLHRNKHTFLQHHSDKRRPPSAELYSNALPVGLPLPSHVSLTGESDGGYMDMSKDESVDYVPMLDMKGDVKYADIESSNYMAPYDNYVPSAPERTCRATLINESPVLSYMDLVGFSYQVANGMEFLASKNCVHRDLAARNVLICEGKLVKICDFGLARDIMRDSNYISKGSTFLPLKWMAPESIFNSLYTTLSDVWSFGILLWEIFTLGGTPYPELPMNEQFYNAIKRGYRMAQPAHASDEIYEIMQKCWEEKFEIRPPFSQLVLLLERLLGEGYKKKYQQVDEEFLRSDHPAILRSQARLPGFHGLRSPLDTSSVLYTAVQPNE

With `Cc1ncc(NC(=O)CCN2CCCC2(C)C)cc1NC(=O)c1cnn2cc(-c3ccn(C)n3)sc12` [Example 12, N-(5-(3-(2,2-dimethylpyrrolidin-1-yl)propanamido)-2-methyl-pyridin-3-yl)-2-(1-methyl-1H-pyrazol-3-yl)pyrazolo[5,1-b]thiazole-7-carboxamide], the 50% inhibitory concentration (IC50) (as a rule, the concentration that inhibits the measured activity by half) was determined as 0.3 nM.

Regarding `Cc1ncc(NC(=O)CN2CCCC2(C)C)cc1NC(=O)c1cnn2cc(-c3cnn(C)c3)sc12` [Example 13, N-(5-(2-(2,2-dimethylpyrrolidin-1-yl)acetamido)-2-methylpyridin-3-yl)-2-(1-methyl-1H-pyrazol-4-yl)pyrazolo[5,1-b]thiazole-7-carboxamide], the IC50 is 0.5 nM.

Take `Cc1ncc(NC(=O)CN2CCC(F)(F)CC2)cc1NC(=O)c1cnn2cc(-c3cnn(C)c3)sc12` [Example 14, N-(5-(2-(4,4-difluoropiperidin-1-yl)acetamido)-2-methylpyridin-3-yl)-2-(1-methyl-1H-pyrazol-4-yl)pyrazolo[5,1-b]thiazole-7-carboxamide]: the half-inhibitory concentration (IC50) came to 0.4 nM.

Turning to `Cc1ncc(NC(=O)CN(C)C2CCOCC2)cc1NC(=O)c1cnn2cc(-c3cnn(C)c3)sc12` [Example 15, 2-(1-methyl-1H-pyrazol-4-yl)-N-(2-methyl-5-(2-(methyl(tetrahydro-2H-pyran-4-yl)amino)acetamido)pyridin-3-yl)pyrazolo[5,1-b]thiazole-7-carboxamide], the half-inhibitory concentration (IC50) worked out at 0.5 nM.

Take `Cc1ncc(NC(=O)CN2CCCC23CC3)cc1NC(=O)c1cnn2cc(-c3cnn(C)c3)sc12` [Example 16, N-(5-(2-(4-azaspiro[2.4]heptan-4-yl)acetamido)-2-methylpyridin-3-yl)-2-(1-methyl-1H-pyrazol-4-yl)pyrazolo[5,1-b]thiazole-7-carboxamide]: the half-inhibitory concentration (IC50) came out at 0.5 nM.

Turning to `Cc1ncc(NC(=O)CN2CCc3cnn(C)c3C2)cc1NC(=O)c1cnn2cc(-c3cnn(C)c3)sc12` [Example 17, 2-(1-methyl-1H-pyrazol-4-yl)-N-(2-methyl-5-(2-(1-methyl-4,5-dihydro-1H-pyrazolo[3,4-c]pyridin-6 (7H)-yl)acetamido)pyridin-3-yl)pyrazolo[5,1-b]thiazole-7-carboxamide], the IC50 turned out to be 0.5 nM.

On to `Cc1ncc(NC(=O)CN2CCC3(COC3)C2)cc1NC(=O)c1cnn2cc(-c3cnn(C)c3)sc12` [Example 18, N-(5-(2-(2-oxa-6-azaspiro[3.4]octan-6-yl)acetamido)-2-methylpyridin-3-yl)-2-(1-methyl-1H-pyrazol-4-yl)pyrazolo[5,1-b]thiazole-7-carboxamide], for which the IC50 worked out at 0.6 nM.

Consider `Cc1ncc(C(=O)NCCN2CC3CCC2CC3)cc1NC(=O)c1cnn2cc(-c3cnn(C(F)F)c3)sc12` [Example 180, N-(5-((2-(2-azabicyclo[2.2.2]octan-2-yl)ethyl)carbamoyl)-2-methylpyridin-3-yl)-2-(1-(difluoromethyl)-1H-pyrazol-4-yl)pyrazolo[5,1-b]thiazole-7-carboxamide], for which the IC50 was 0.4 nM.

For the compound `Cc1ncc(C(=O)NCCN2CC3CCC2CC3)cc1NC(=O)c1cnn2cc(-c3cnn(C4CC4)c3)sc12` [Example 181, N-(5-((2-(2-azabicyclo[2.2.2]octan-2-yl)ethyl)carbamoyl)-2-methylpyridin-3-yl)-2-(1-cyclopropyl-1H-pyrazol-4-yl)pyrazolo[5,1-b]thiazole-7-carboxamide], the 50% inhibitory concentration (IC50) came out at 0.2 nM.

For `Cc1cc(C(=O)NCCN2CCCC2(C)C)sc1NC(=O)c1cnn2cc(-c3cnn(C)c3)sc12` [Example 182, N-(5-((2-(2,2-dimethylpyrrolidin-1-yl)ethyl)carbamoyl)-3-methylthiophen-2-yl)-2-(1-methyl-1H-pyrazol-4-yl)pyrazolo[5,1-b]thiazole-7-carboxamide], the concentration for half-maximal inhibition (IC50) was determined as 24.1 nM.

Regarding `Cc1cc(C(=O)NCCN2CCC(C)(C)CC2)sc1NC(=O)c1cnn2cc(-c3cnn(C)c3)sc12` [Example 183, N-(5-((2-(4,4-dimethylpiperidin-1-yl)ethyl)carbamoyl)-3-methylthiophen-2-yl)-2-(1-methyl-1H-pyrazol-4-yl)pyrazolo[5,1-b]thiazole-7-carboxamide], the half-inhibitory concentration (IC50) was 11.1 nM.

For the compound `Cc1cc(C(=O)NCCN2CCCC2(C)C)sc1NC(=O)c1cnn2cc(-c3ccc(N)nc3)sc12` [Example 184, 2-(6-aminopyridin-3-yl)-N-(5-((2-(2,2-dimethylpyrrolidin-1-yl)ethyl)carbamoyl)-3-methylthiophen-2-yl)pyrazolo[5,1-b]thiazole-7-carboxamide], the IC50 is 15.9 nM.

As for `Cc1cc(C(=O)NCCN2CCCC2(C)C)sc1NC(=O)c1cnn2cc(-c3cncnc3)sc12` [Example 185, N-(5-((2-(2,2-dimethylpyrrolidin-1-yl)ethyl)carbamoyl)-3-methylthiophen-2-yl)-2-(pyrimidin-5-yl)pyrazolo[5,1-b]thiazole-7-carboxamide], the half-maximal inhibitory concentration (IC50) turned out to be 704 nM.

For `Cc1cc(C(=O)NCCN2CCCC2(C)C)sc1NC(=O)c1cnn2cc(-c3cnn(C)n3)sc12` [Example 186, N-(5-((2-(2,2-dimethylpyrrolidin-1-yl)ethyl)carbamoyl)-3-methylthiophen-2-yl)-2-(2-methyl-2H-1,2,3-triazol-4-yl)pyrazolo[5,1-b]thiazole-7-carboxamide], the IC50 turned out to be 41.4 nM.

As for `Cc1cc(C(=O)NCCN2CCCC2(C)C)sc1NC(=O)c1cnn2cc(-c3ccncc3)sc12` [Example 187, N-(5-((2-(2,2-dimethylpyrrolidin-1-yl)ethyl)carbamoyl)-3-methylthiophen-2-yl)-2-(pyridin-4-yl)pyrazolo[5,1-b]thiazole-7-carboxamide], the IC50 stood at 27.7 nM.

Take `Cc1cc(C(=O)NCCN2CCCC2(C)C)sc1NC(=O)c1cnn2cc(-c3ccn(C)n3)sc12` [Example 188, N-(5-((2-(2,2-dimethylpyrrolidin-1-yl)ethyl)carbamoyl)-3-methylthiophen-2-yl)-2-(1-methyl-1H-pyrazol-3-yl)pyrazolo[5,1-b]thiazole-7-carboxamide]: the IC50 was 9.5 nM.

Regarding `Cc1cc(C(=O)NCCN2CCC(C)(C)C2)sc1NC(=O)c1cnn2cc(-c3cnn(C)c3)sc12` [Example 189, N-(5-((2-(3,3-dimethylpyrrolidin-1-yl)ethyl)carbamoyl)-3-methylthiophen-2-yl)-2-(1-methyl-1H-pyrazol-4-yl)pyrazolo[5,1-b]thiazole-7-carboxamide], the concentration for half-maximal inhibition (IC50) worked out at 7.3 nM.

As for `Cc1cc(C(=O)NCCN(C)C2CCCC2)sc1NC(=O)c1cnn2cc(-c3cnn(C)c3)sc12` [Example 190, N-(5-((2-(cyclopentyl(methyl)amino)ethyl)carbamoyl)-3-methylthiophen-2-yl)-2-(1-methyl-1H-pyrazol-4-yl)pyrazolo[5,1-b]thiazole-7-carboxamide], the half-maximal inhibitory concentration (IC50) came to 6 nM.

For `Cc1cc(C(=O)NCCN2CCC(O)CC2)sc1NC(=O)c1cnn2cc(-c3cnn(C)c3)sc12` [Example 191, N-(5-((2-(4-hydroxypiperidin-1-yl)ethyl)carbamoyl)-3-methylthiophen-2-yl)-2-(1-methyl-1H-pyrazol-4-yl)pyrazolo[5,1-b]thiazole-7-carboxamide], the half-maximal inhibitory concentration (IC50) came out at 248 nM.

With `Cc1cc(C(=O)NCCN(C)C2CCOCC2)sc1NC(=O)c1cnn2cc(-c3cnn(C)c3)sc12` [Example 192, 2-(1-methyl-1H-pyrazol-4-yl)-N-(3-methyl-5-((2-(methyl(tetrahydro-2H-pyran-4-yl)amino)ethyl)carbamoyl)thiophen-2-yl)pyrazolo[5,1-b]thiazole-7-carboxamide], the 50% inhibitory concentration (IC50) was found to be 34.6 nM.

`Cc1cc(C(=O)NCCN2CCC(CO)CC2)sc1NC(=O)c1cnn2cc(-c3cnn(C)c3)sc12` [Example 193, N-(5-((2-(4-(hydroxymethyl)piperidin-1-yl)ethyl)carbamoyl)-3-methylthiophen-2-yl)-2-(1-methyl-1H-pyrazol-4-yl)pyrazolo[5,1-b]thiazole-7-carboxamide]: the IC50 was determined as 321 nM.

On to `Cc1cc(C(=O)NCCN2CC[C@@H](O)C2)sc1NC(=O)c1cnn2cc(-c3cnn(C)c3)sc12` [Example 194, (R)—N-(5-((2-(3-hydroxypyrrolidin-1-yl)ethyl)carbamoyl)-3-methylthiophen-2-yl)-2-(1-methyl-1H-pyrazol-4-yl)pyrazolo[5,1-b]thiazole-7-carboxamide], for which the half-maximal inhibitory concentration (IC50) was 147 nM.

For the compound `Cc1cc(C(=O)NCCN2CC[C@H](O)C2)sc1NC(=O)c1cnn2cc(-c3cnn(C)c3)sc12` [Example 195, (S)—N-(5-((2-(3-hydroxypyrrolidin-1-yl)ethyl)carbamoyl)-3-methylthiophen-2-yl)-2-(1-methyl-1H-pyrazol-4-yl)pyrazolo[5,1-b]thiazole-7-carboxamide], the half-inhibitory concentration (IC50) amounted to 156 nM.

Regarding `Cc1cc(C(=O)NCCN2CCOCC23CC3)sc1NC(=O)c1cnn2cc(-c3cnn(C)c3)sc12` [Example 197, N-(5-((2-(7-oxa-4-azaspiro[2.5]octan-4-yl)ethyl)carbamoyl)-3-methylthiophen-2-yl)-2-(1-methyl-1H-pyrazol-4-yl)pyrazolo[5,1-b]thiazole-7-carboxamide], the half-maximal inhibitory concentration (IC50) is 11.5 nM.

On to `Cc1cc(C(=O)NCCN2[C@H](C)CCC[C@@H]2C)sc1NC(=O)c1cnn2cc(-c3cnn(C)c3)sc12` [Example 198, N-(5-((2-((2S,6R)-2,6-dimethylpiperidin-1-yl)ethyl)carbamoyl)-3-methylthiophen-2-yl)-2-(1-methyl-1H-pyrazol-4-yl)pyrazolo[5,1-b]thiazole-7-carboxamide], for which the half-maximal inhibitory concentration (IC50) is 2 nM.

`Cc1cc(C(=O)NCCN2CC3CCC2CC3)sc1NC(=O)c1cnn2cc(-c3cnn(C)c3)sc12` [Example 199, N-(5-((2-(2-azabicyclo[2.2.2]octan-2-yl)ethyl)carbamoyl)-3-methylthiophen-2-yl)-2-(1-methyl-1H-pyrazol-4-yl)pyrazolo[5,1-b]thiazole-7-carboxamide]: the 50% inhibitory concentration (IC50) was 2 nM.
